Read-outs that look alike come from different tables or passages of the source. Square brackets hold non-standard residues; d marks the D form. Peptide text beside a SMILES is read from it. Bip = N[C@@H](Cc1ccc(-c2ccccc2)cc1)C(=O)O; αMePhe(2-F) = C[C@](N)(Cc1ccccc1F)C(=O)O; Phe(2-F) = N[C@@H](Cc1ccccc1F)C(=O)O; Aib = CC(C)(N)C(=O)O
Biological target: T1, hGLP1 receptor (Homo sapiens, UniProt P43220)
T1 construct: expressed in transfected cells; host or cells: HEK (human embryonic kidney) cells co-expressing hGLP1 receptor and CRE-Luciferase
Test: GLP-1 receptor agonism assay (HTRF cAMP, HEK cells co-expressing hGLP1 receptor and CRE-Luciferase)
Format: cell-based
Conditions: for Emax: HEK293, Table 6 potency profile; for EC50: 0% HSA; for decreased potency by Ala substitution in RXL-3000: Ala-scanning, versus RXL-3000; for decreased potency (Aib/Ala comparison): versus respective parent analog
Protocol: Human embryonic kidney cells (HEK) co-expressing the hGLP1 receptor and CRE-Luciferase construct were used to determine agonist potency in this assay. The cells were thawed briefly at 37 °C, transferred to a sterile tube, and re-suspended in complete media at 37 °C. Cells were centrifuged at 1000 rpm for 5 min and collected; the cells were then re-suspended in an assay buffer consisting of Dulbecco’s phosphate-buffered saline (DPBS, GIBCO) with 500 μM of the phosphodiesterase inhibitor 3-isobutyl-1-methylxanthine (IBMX). The assay medium had 0% serum albumin, as specified in Table 1, Table 2, Table 3 and Table 4. The optimal cell density was determined to be 1000 cells/well. Cells were added to wells in 384-well plates containing appropriate pre-prepared dilutions of compounds (test peptides or reference compound exendin-4), sealed, and incubated with CO2 for 30 min. Test peptide solutions were diluted from 10 mM stock solutions to be used in two separate runs (performed in triplicate) from a maximal concentration of 1.0 μM, with 11 concentrations tested for each peptide using serial 1:3 dilution from this maximal concentration. […] The agonist assay was a homogeneous time-resolved fluorescence (HTRF) assay (Cisbio). Following incubation of the cells for 30 min with test or reference peptides, 5 μL of the cAMP acceptor cAMP-d2, prepared previously as a working solution from frozen stock (1:20 dilution), was added to each well of the assay plate along with 5 μL of anti-cAMP antibody-cryptate working solution (diluted 1:20 from frozen stock). The wells were incubated for 1 h at room temperature, and fluorescence was then read at 665 and 615 nm with an Envision reader with a TRF laser. Data were saved and analyzed using Prism software (GraphPad). Concentration–response analysis was performed using 4-parameter logistic fits of the resulting data, and EC50 values were obtained for each test and reference compound.

[1] = Table 1, Phe6 modifications, average of two independent experiments in triplicate (RXL-3039 tested once), read-out: cAMP EC50
[2] = Table 2, Ala-scanning, >1000 nM = out of range, read-out: cAMP EC50
[3] = Table 3, Aib-scanning, >1000 nM = out of range, read-out: cAMP EC50
[4] = Table 4, Ala-scan peptides, read-out: pEC50 (converted)

T1 sequence (P43220 24-463): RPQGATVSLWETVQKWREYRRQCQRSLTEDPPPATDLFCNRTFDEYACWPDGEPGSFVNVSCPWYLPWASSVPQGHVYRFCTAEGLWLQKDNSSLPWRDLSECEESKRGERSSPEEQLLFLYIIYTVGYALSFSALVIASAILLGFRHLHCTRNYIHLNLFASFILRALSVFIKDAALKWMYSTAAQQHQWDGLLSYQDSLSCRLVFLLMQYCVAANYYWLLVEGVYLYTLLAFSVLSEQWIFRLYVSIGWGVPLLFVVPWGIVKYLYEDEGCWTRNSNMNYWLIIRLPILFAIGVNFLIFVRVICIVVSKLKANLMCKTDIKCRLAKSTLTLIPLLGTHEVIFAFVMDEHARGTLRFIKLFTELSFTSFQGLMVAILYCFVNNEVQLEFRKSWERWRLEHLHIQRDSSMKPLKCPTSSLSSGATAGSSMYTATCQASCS

Structure (SMILES) | Emax [%] | EC50 [1] [nM] | EC50 [2] [nM] | other results
C[C@@H](O)[C@H](NC(=O)CNC(=O)[C@H](CCC(=O)O)NC(=O)C(C)(C)NC(=O)[C@@H](N)Cc1c[nH]cn1)C(=O)N[C@@H](Cc1ccccc1)C(=O)N[C@H](C(=O)N[C@@H](CO)C(=O)N[C@@H](CC(=O)O)C(=O)N[C@@H](Cc1ccc(-c2ccccc2)cc1)C(=O)N[C@@H](Cc1ccc(-c2ccccc2)cc1)C(N)=O)[C@@H](C)O [RXL-100, His-Aib-Glu-Gly-Thr-Phe-Thr-Ser-Asp-Bip-Bip-NH2] | 110 | 0.5 | 0.5 | EC50 [3]: 0.5 nM
C[C@@H](O)[C@H](NC(=O)CNC(=O)[C@H](CCC(=O)O)NC(=O)C(C)(C)NC(=O)[C@@H](N)Cc1c[nH]cn1)C(=O)N[C@@](C)(Cc1ccccc1F)C(=O)N[C@H](C(=O)N[C@@H](CO)C(=O)N[C@@H](CC(=O)O)C(=O)N[C@@H](Cc1ccc(-c2ccccc2)cc1)C(=O)N[C@@H](Cc1ccc(-c2ccccc2)cc1)C(N)=O)[C@@H](C)O [RXL-101, His-Aib-Glu-Gly-Thr-α-Me-Phe(2-F)-Thr-Ser-Asp-Bip-Bip-NH2] (H-H[Aib]EGT[αMePhe(2-F)]TSD[Bip][Bip]-NH2) | 117 |  |  | Cα-methylation pEC50 contribution for position 6 (pEC50 of RXL-101 minus pEC50 of RXL-3000): 0.97
C[C@@H](O)[C@H](NC(=O)CNC(=O)[C@H](CCC(=O)O)NC(=O)C(C)(C)NC(=O)[C@@H](N)Cc1c[nH]cn1)C(=O)N[C@@H](Cc1ccccc1F)C(=O)N[C@H](C(=O)N[C@@H](CO)C(=O)N[C@@H](CC(=O)O)C(=O)N[C@@H](Cc1ccc(-c2ccccc2)cc1)C(=O)N[C@@H](Cc1ccc(-c2ccccc2)cc1)C(N)=O)[C@@H](C)O [RXL-3000, His-Aib-Glu-Gly-Thr-Phe(2-F)-Thr-Ser-Asp-Bip-Bip-NH2] | 109 | 0.1 | 0.1 | EC50 [3]: 0.1 nM; GLP-1R agonist potency greater versus the parent peptide RXL-100 (versus RXL-100): approximately fivefold
C[C@H](N)C(=O)NC(C)(C)C(=O)N[C@@H](CCC(=O)O)C(=O)NCC(=O)N[C@H](C(=O)N[C@@H](Cc1ccccc1F)C(=O)N[C@H](C(=O)N[C@@H](CO)C(=O)N[C@@H](CC(=O)O)C(=O)N[C@@H](Cc1ccc(-c2ccccc2)cc1)C(=O)N[C@@H](Cc1ccc(-c2ccccc2)cc1)C(N)=O)[C@@H](C)O)[C@@H](C)O [RXL-3001, Ala-Aib-Glu-Gly-Thr-Phe(2-F)-Thr-Ser-Asp-Bip-Bip-NH2] | 108 |  | 21.9 | 
C[C@H](NC(=O)[C@@H](N)Cc1c[nH]cn1)C(=O)N[C@@H](CCC(=O)O)C(=O)NCC(=O)N[C@H](C(=O)N[C@@H](Cc1ccccc1F)C(=O)N[C@H](C(=O)N[C@@H](CO)C(=O)N[C@@H](CC(=O)O)C(=O)N[C@@H](Cc1ccc(-c2ccccc2)cc1)C(=O)N[C@@H](Cc1ccc(-c2ccccc2)cc1)C(N)=O)[C@@H](C)O)[C@@H](C)O [RXL-3002, His-Ala-Glu-Gly-Thr-Phe(2-F)-Thr-Ser-Asp-Bip-Bip-NH2] | 102 |  | 0.2 | 
C[C@H](NC(=O)C(C)(C)NC(=O)[C@@H](N)Cc1c[nH]cn1)C(=O)NCC(=O)N[C@H](C(=O)N[C@@H](Cc1ccccc1F)C(=O)N[C@H](C(=O)N[C@@H](CO)C(=O)N[C@@H](CC(=O)O)C(=O)N[C@@H](Cc1ccc(-c2ccccc2)cc1)C(=O)N[C@@H](Cc1ccc(-c2ccccc2)cc1)C(N)=O)[C@@H](C)O)[C@@H](C)O [RXL-3003, His-Aib-Ala-Gly-Thr-Phe(2-F)-Thr-Ser-Asp-Bip-Bip-NH2] | 108 |  | 7.9 | 
C[C@H](NC(=O)CNC(=O)[C@H](CCC(=O)O)NC(=O)C(C)(C)NC(=O)[C@@H](N)Cc1c[nH]cn1)C(=O)N[C@@H](Cc1ccccc1F)C(=O)N[C@H](C(=O)N[C@@H](CO)C(=O)N[C@@H](CC(=O)O)C(=O)N[C@@H](Cc1ccc(-c2ccccc2)cc1)C(=O)N[C@@H](Cc1ccc(-c2ccccc2)cc1)C(N)=O)[C@@H](C)O [RXL-3004, His-Aib-Glu-Gly-Ala-Phe(2-F)-Thr-Ser-Asp-Bip-Bip-NH2] (H-H[Aib]EGA[Phe(2-F)]TSD[Bip][Bip]-NH2) | 108 |  | 7.7 | EC50 [4]: 6.92 nM
C[C@H](NC(=O)[C@H](Cc1ccccc1F)NC(=O)[C@@H](NC(=O)CNC(=O)[C@H](CCC(=O)O)NC(=O)C(C)(C)NC(=O)[C@@H](N)Cc1c[nH]cn1)[C@@H](C)O)C(=O)N[C@@H](CO)C(=O)N[C@@H](CC(=O)O)C(=O)N[C@@H](Cc1ccc(-c2ccccc2)cc1)C(=O)N[C@@H](Cc1ccc(-c2ccccc2)cc1)C(N)=O [RXL-3005, His-Aib-Glu-Gly-Thr-Phe(2-F)-Ala-Ser-Asp-Bip-Bip-NH2] (H-H[Aib]EGT[Phe(2-F)]ASD[Bip][Bip]-NH2) | 102 |  | 47.5 | EC50 [4]: 21.4 nM
C[C@H](NC(=O)[C@@H](NC(=O)[C@H](Cc1ccccc1F)NC(=O)[C@@H](NC(=O)CNC(=O)[C@H](CCC(=O)O)NC(=O)C(C)(C)NC(=O)[C@@H](N)Cc1c[nH]cn1)[C@@H](C)O)[C@@H](C)O)C(=O)N[C@@H](CC(=O)O)C(=O)N[C@@H](Cc1ccc(-c2ccccc2)cc1)C(=O)N[C@@H](Cc1ccc(-c2ccccc2)cc1)C(N)=O [RXL-3006, His-Aib-Glu-Gly-Thr-Phe(2-F)-Thr-Ala-Asp-Bip-Bip-NH2] (H-H[Aib]EGT[Phe(2-F)]TAD[Bip][Bip]-NH2) | 120 |  | 8.5 | EC50 [4]: 1.91 nM
C[C@H](NC(=O)[C@H](CO)NC(=O)[C@@H](NC(=O)[C@H](Cc1ccccc1F)NC(=O)[C@@H](NC(=O)CNC(=O)[C@H](CCC(=O)O)NC(=O)C(C)(C)NC(=O)[C@@H](N)Cc1c[nH]cn1)[C@@H](C)O)[C@@H](C)O)C(=O)N[C@@H](Cc1ccc(-c2ccccc2)cc1)C(=O)N[C@@H](Cc1ccc(-c2ccccc2)cc1)C(N)=O [RXL-3007, His-Aib-Glu-Gly-Thr-Phe(2-F)-Thr-Ser-Ala-Bip-Bip-NH2] (H-H[Aib]EGT[Phe(2-F)]TSA[Bip][Bip]-NH2) | 132 |  | 14 | EC50 [4]: 4.79 nM
C[C@H](NC(=O)[C@H](CC(=O)O)NC(=O)[C@H](CO)NC(=O)[C@@H](NC(=O)[C@H](Cc1ccccc1F)NC(=O)[C@@H](NC(=O)CNC(=O)[C@H](CCC(=O)O)NC(=O)C(C)(C)NC(=O)[C@@H](N)Cc1c[nH]cn1)[C@@H](C)O)[C@@H](C)O)C(=O)N[C@@H](Cc1ccc(-c2ccccc2)cc1)C(N)=O [RXL-3008, His-Aib-Glu-Gly-Thr-Phe(2-F)-Thr-Ser-Asp-Ala-Bip-NH2] (H-H[Aib]EGT[Phe(2-F)]TSDA[Bip]-NH2) | 43.6 |  | > 1000 | decreased potency by Ala substitution in RXL-3000: > 1000 fold; decreased potency (Aib/Ala comparison): > 10,000 fold
C[C@H](NC(=O)[C@H](Cc1ccc(-c2ccccc2)cc1)NC(=O)[C@H](CC(=O)O)NC(=O)[C@H](CO)NC(=O)[C@@H](NC(=O)[C@H](Cc1ccccc1F)NC(=O)[C@@H](NC(=O)CNC(=O)[C@H](CCC(=O)O)NC(=O)C(C)(C)NC(=O)[C@@H](N)Cc1c[nH]cn1)[C@@H](C)O)[C@@H](C)O)C(N)=O [RXL-3009, His-Aib-Glu-Gly-Thr-Phe(2-F)-Thr-Ser-Asp-Bip-Ala-NH2] | 43.2 |  | > 1000 | decreased potency by Ala substitution in RXL-3000: > 1000 fold; decreased potency (Aib/Ala comparison): 10,000 fold
C[C@@H](O)[C@H](NC(=O)CNC(=O)[C@H](CCC(=O)O)NC(=O)C(C)(C)NC(=O)[C@@H](N)Cc1c[nH]cn1)C(=O)N[C@@H](Cc1ccccc1Br)C(=O)N[C@H](C(=O)N[C@@H](CO)C(=O)N[C@@H](CC(=O)O)C(=O)N[C@@H](Cc1ccc(-c2ccccc2)cc1)C(=O)N[C@@H](Cc1ccc(-c2ccccc2)cc1)C(N)=O)[C@@H](C)O [RXL-3010, His-Aib-Glu-Gly-Thr-Phe(2-Br)-Thr-Ser-Asp-Bip-Bip-NH2] | 121 | 3.85 |  | 
C[C@@H](O)[C@H](NC(=O)CNC(=O)[C@H](CCC(=O)O)NC(=O)C(C)(C)NC(=O)[C@@H](N)Cc1c[nH]cn1)C(=O)N[C@@H](Cc1ccccc1Cl)C(=O)N[C@H](C(=O)N[C@@H](CO)C(=O)N[C@@H](CC(=O)O)C(=O)N[C@@H](Cc1ccc(-c2ccccc2)cc1)C(=O)N[C@@H](Cc1ccc(-c2ccccc2)cc1)C(N)=O)[C@@H](C)O [RXL-3011, His-Aib-Glu-Gly-Thr-Phe(2-Cl)-Thr-Ser-Asp-Bip-Bip-NH2] | 91.3 | 0.9 |  | 
C[C@@H](O)[C@H](NC(=O)CNC(=O)[C@H](CCC(=O)O)NC(=O)C(C)(C)NC(=O)[C@@H](N)Cc1c[nH]cn1)C(=O)N[C@@H](Cc1ccccc1C(F)(F)F)C(=O)N[C@H](C(=O)N[C@@H](CO)C(=O)N[C@@H](CC(=O)O)C(=O)N[C@@H](Cc1ccc(-c2ccccc2)cc1)C(=O)N[C@@H](Cc1ccc(-c2ccccc2)cc1)C(N)=O)[C@@H](C)O [RXL-3012, His-Aib-Glu-Gly-Thr-Phe(2-CF3)-Thr-Ser-Asp-Bip-Bip-NH2] | 99.3 | 13.9 |  | 

— publication PMC11721672, “Design, Structure–Activity Relationships, and Computational Modeling Studies of a Series of α-Helix Biased, Ultra-Short Glucagon-like Peptide-1 Receptor Agonists” (Molecules, 2024)
